Here are results for 69 molecules from publication PMC9775191, “A Subset Screen of the Compounds Australia Scaffold Library Identifies 7-Acylaminodibenzoxazepinones as Potent and Selective Hits for Anti-Giardia Drug Discovery” (Biomedicines, 2022).

One assay concerns G. duodenalis BRIS/91/HEPU/1279. Put plainly: Primary Giardia screen at 10 µM (live-cell imaging, automated counting). It is filed as cell-based, Giardia duodenalis. As to conditions: 24 h. In a few lines:
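Compound added to 10 μM final in medium with 0.2% DMSO, one well each; plates then held in sealed chambers at 3% O2, 5% CO2 in N2; growth imaged and counted automatically at 24 and 48 h; values normalised to vehicle wells minus media blank.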
In the case of `CCCNC(=O)N1CCN(c2nc3ccccc3n3cccc23)CC1` [SN00793136], the “Average % Inhibition 24h” value is reported as 3.9%.
With `COc1ccc(Nc2cc(C)nc(N3CCN(C(=O)c4ccccc4)CC3)n2)cc1` [SN00793485], the “Average % Inhibition 24h” value stood at 5.5%.

Still in this assay, the particulars now being: 24 h, first singlicate assay.
`CCCNC(=O)N1CCN(c2nc3ccccc3n3cccc23)CC1` [SN00793136]: the “% Inhibition n=1 24h” value was found to be 7.8%.
Turning to `COc1ccc(Nc2cc(C)nc(N3CCN(C(=O)c4ccccc4)CC3)n2)cc1` [SN00793485], the “% Inhibition n=1 24h” value stood at 11.1%.

Still in this assay, the particulars now being: 24 h, re-assessment.
As for `CCCNC(=O)N1CCN(c2nc3ccccc3n3cccc23)CC1` [SN00793136], the “% Inhibition n=2 24h” value is on record as 0.0%.
Consider `COc1ccc(Nc2cc(C)nc(N3CCN(C(=O)c4ccccc4)CC3)n2)cc1` [SN00793485], for which the “% Inhibition n=2 24h” value amounted to 0.0%.

The same assay, now with this note: 48 h.
In the case of `CCCNC(=O)N1CCN(c2nc3ccccc3n3cccc23)CC1` [SN00793136], the “Average % Inhibition 48h” value is given as 22.4%.
On the same count and under the same terms, next, `COc1ccc(Nc2cc(C)nc(N3CCN(C(=O)c4ccccc4)CC3)n2)cc1` [SN00793485]: 29.3%.

The assay is the same for the next values; noted with them: 48 h, first singlicate assay.
Turning to `CCOC(=O)Cc1ccc(NC(=O)N2CCC3(CC2)N=C(c2ccc(F)cc2)C(=O)N3)cc1` [SN00792712], the “% Inhibition n=1 48h” value worked out at 14.3%.
`Cc1cccc(C2=NC3(CCN(C(=O)NC4CCCCC4)CC3)NC2=O)c1` [SN00792717]: the “% Inhibition n=1 48h” value is 13.8%.
Take `CCC(=O)N1CCC2(CC1)N=C(c1cccc(OC)c1)C(=O)N2` [SN00792731]: the “% Inhibition n=1 48h” value turned out to be 18.9%.
Take `CN1CCN(CCNC(=O)CN2C(=O)C3CCCCN3c3ccc(C(=O)N4CCCC4)cc32)CC1` (stereo not shown) [SN00792767]: the “% Inhibition n=1 48h” value was 13.0%.
For `O=S(=O)(c1cccc(F)c1)N1CC(OCc2cccc(F)c2)C1` [SN00792818], the “% Inhibition n=1 48h” value amounted to 10.0%.
Consider `CSc1ccc(CCNC(=O)c2ccc3c(c2)nc2n3CCOC2)cc1` [SN00792852], for which the “% Inhibition n=1 48h” value is given as 12.8%.
As for `CCN(CC)S(=O)(=O)c1ccc2c(c1)cc(C(=O)NC1CCCC1)n2C` [SN00792862], the “% Inhibition n=1 48h” value was found to be 0.0%.
The same measure, in the same setting: next, `CN(C)S(=O)(=O)c1ccc2c(c1)cc(C(=O)NCCCN1CCc3ccccc3C1)n2C` [SN00792874]: 0.0%.
As for `Cc1ccc(CNC(=O)Cn2c(C)cc(C)c(-c3nc(-c4ccccc4)no3)c2=O)cc1` [SN00792891], the “% Inhibition n=1 48h” value was 0.0%.
For the molecule `Cc1ccc(NC(=O)Cn2c(C)cc(C)c(-c3nc(-c4ccc5c(c4)OCO5)no3)c2=O)cc1` [SN00792912], the “% Inhibition n=1 48h” value was determined as 3.6%.
Turning to `COc1ccccc1-c1cc(C(=O)Nc2sc(Nc3ccccc3)nc2C(N)=O)[nH]n1` [SN00792956], the “% Inhibition n=1 48h” value turned out to be 11.1%.
With `CCn1c(=O)c(=O)n(CC(=O)NCc2ccc(SC)cc2)c2ccccc21` [SN00792977], the “% Inhibition n=1 48h” value is given as 16.0%.
Turning to `O=C(Cn1c(=O)c(=O)n(Cc2ccccc2)c2ccccc21)NCCCN1CCCC1` [SN00792985], the “% Inhibition n=1 48h” value was 20.3%.
With `COc1ccc(NC(=O)N2CCC3(CC2)Nc2cc(C)ccc2-n2cccc23)cc1` [SN00793004], the “% Inhibition n=1 48h” value turned out to be 10.6%.
In the case of `CCc1ccc(C2=Nc3ncnn3/C2=N/Cc2ccc(F)cc2)cc1` [SN00793051], the “% Inhibition n=1 48h” value was found to be 1.3%.
For `CC(C)c1ccc(-c2noc(N3CCC(C(=O)N4CCN(C5CCCCC5)CC4)CC3)n2)cc1` [SN00793072], the “% Inhibition n=1 48h” value amounted to 11.6%.
On the same count and under the same terms, next, `CCCNC(=O)N1CCN(c2nc3ccccc3n3cccc23)CC1` [SN00793136]: 44.8%.
In the case of `Cc1c(C(=O)O)sc2ncnc(NC3CCCCCC3)c12` [SN00793181], the “% Inhibition n=1 48h” value worked out at 3.6%.
Consider `Cc1sc2ncn(CC3CCCO3)c(=O)c2c1C(=O)Nc1ccc(S(N)(=O)=O)nc1` (stereo not shown) [SN00793191], for which the “% Inhibition n=1 48h” value is 0.0%.
Still for that read-out and setting: next, `COc1ccc(-c2cc3c(=O)n(Cc4cccc(F)c4)ccn3n2)cc1` [SN00793208]: 0.0%; `COc1cccc(Cn2c(CNC(=O)CCc3c(C)noc3C)nc3cccnc32)c1` [SN00793247]: 17.5%.
Take `CC(C)CC(=O)NCc1nc2cccnc2n1Cc1ccc(F)cc1` [SN00793251]: the “% Inhibition n=1 48h” value is 8.4%.
In the case of `Cc1cccc(Cn2c(CNS(=O)(=O)c3ccccc3)nc3cccnc32)c1` [SN00793267], the “% Inhibition n=1 48h” value is given as 9.9%.
For the molecule `Cc1nc(-c2ccc(C(=O)N3CCCC3C(=O)Nc3ccc(C(C)C)cc3)cc2)no1` (stereo not shown) [SN00793315], the “% Inhibition n=1 48h” value was 0.0%.
Turning to `Cc1nc(-c2ccc(C(=O)N3CCCC3C(=O)Nc3ccc(C)c(Cl)c3)cc2)no1` (stereo not shown) [SN00793320], the “% Inhibition n=1 48h” value is reported as 16.2%.
The same measure, in the same setting: then `CC(=O)N1CCCc2cc(S(=O)(=O)N3CCN(c4ccc(F)cc4)CC3)ccc21` [SN00793330], with 0.2%.
As to `O=C(C1CCC1)N1CCCc2cc(S(=O)(=O)Nc3ccccc3)ccc21` [SN00793348], the “% Inhibition n=1 48h” value was 0.0%.
`Cc1ccc(-c2nc3ncccn3c2NC(=O)c2ccc(C(F)(F)F)cc2)cc1` [SN00793355]: the “% Inhibition n=1 48h” value worked out at 13.4%.
`Cc1nc(S(=O)(=O)c2ccc(Br)cc2)c(NCc2ccccc2)o1` [SN00793357]: the “% Inhibition n=1 48h” value turned out to be 27.4%.
The same measure, in the same setting: then `COc1ccc(Nc2cc(C)nc(N3CCN(C(=O)c4ccccc4)CC3)n2)cc1` [SN00793485], with 58.6%; and `Cc1cccc(NC(=O)N2CCN(c3nc(C)cc(N4CCN(C)CC4)n3)CC2)c1` [SN00793530], with 17.4%; and `COc1ccc(C(C)(C)C)cc1S(=O)(=O)N1CCN(c2nc(C)cc(N3CCOCC3)n2)CC1` [SN00793559], with 5.9%.
Same read-out and setting: next, `COc1cccc(CNC(=O)Cn2nc(C(=O)Nc3ccccc3)ccc2=O)c1` [SN00793567]: 4.7%.
Still for that read-out and setting: then `Cc1ccc(NC(=O)c2ccc(=O)n(CCN3CCOCC3)n2)cc1` [SN00793573], with 2.3%.
As for `O=C(NCc1ccc2c(c1)CCN2C(=O)c1ccccc1)C1CCN(S(=O)(=O)N2CCCC2)CC1` [SN00793589], the “% Inhibition n=1 48h” value amounted to 7.9%.
Still for that read-out and setting: next, `O=C(NCc1ccc2c(c1)CCN2C(=O)c1ccccc1)c1n[nH]c2c1CCc1ccccc1-2` [SN00793591]: 5.7%; `CC(C)OCCCNC(=O)Cn1c(=O)c(=O)n(Cc2ccncc2)c2ncccc21` [SN00793629]: 13.1%.
Consider `Cc1nc(N2CCCC2)c2c(C)c(C(=O)Nc3ccccc3Cl)sc2n1` [SN00793643], for which the “% Inhibition n=1 48h” value is 49.2%.
As for `Cn1cnc2cc(-c3noc(C4CCCO4)n3)ccc21` (stereo not shown) [SN00793699], the “% Inhibition n=1 48h” value is recorded as 22.8%.
The same measure, in the same setting: next, `CCc1cc(C2CCCN2C(=O)c2cnn3c(C(F)(F)F)cc(-c4cccs4)nc23)on1` (stereo not shown) [SN00793821]: 1.7%; `CCc1cc(C2CCCN2C(=O)Cc2ccccc2F)on1` (stereo not shown) [SN00793836]: 10.7%.
Regarding `CCc1onc(C)c1C1CCCN1C(=O)c1ccc2c(c1)OCO2` (stereo not shown) [SN00793852], the “% Inhibition n=1 48h” value was found to be 6.6%.
As for `O=[N+]([O-])c1ccc(S(=O)(=O)N2CCCCCC2c2cccs2)cc1` (stereo not shown) [SN00793856], the “% Inhibition n=1 48h” value turned out to be 39.9%.
Same read-out and setting: then `O=[N+]([O-])c1cccc(S(=O)(=O)N2CCCCCC2c2cccs2)c1` (stereo not shown) [SN00793864], with 25.8%.
Still for that read-out and setting: next, `CCc1onc(C)c1C1CCCN1S(=O)(=O)c1ccc(CC(C)C)cc1` (stereo not shown) [SN00793887]: 26.3%; `CCCOc1ccc(CN2CCCC2c2c(C)noc2C)cc1` (stereo not shown) [SN00793908]: 16.7%.
Still for that read-out and setting: then `Cc1cc(C2CCCN2Cc2sccc2C)on1` (stereo not shown) [SN00793909], with 2.5%.
With `CCOC(=O)c1ccc(Nc2c(-c3ccccc3)nc3[nH]cnn23)cc1` [SN00794007], the “% Inhibition n=1 48h” value is 0.0%.
On the same count and under the same terms, then `Cc1nnc2sc(-c3ccc(CNC(=O)c4cccc(Br)c4)cc3)nn12` [SN00794033], with 41.7%.
With `CCc1nnc2sc(-c3ccc(CNC(=O)c4ccc(Br)o4)cc3)nn12` [SN00794046], the “% Inhibition n=1 48h” value came out at 48.2%.
In the case of `Cc1cc(C)c2c(=O)n(CC(=O)Nc3ccc(Br)cc3)c(=O)n(C)c2n1` [SN00794110], the “% Inhibition n=1 48h” value is recorded as 0.0%.
With `COC(=O)c1cn(CC(=O)NCc2cc3c(cc2C)OCCCO3)c2ccccc12` [SN00794141], the “% Inhibition n=1 48h” value was 14.4%.
As to `CNC1(c2nnnn2-c2ccc(OC)cc2)CCCCC1` [SN00794158], the “% Inhibition n=1 48h” value is given as 11.8%.
As for `COc1ccc(-n2nnnc2C2(N3CCOCC3)CCCCC2)cc1` [SN00794159], the “% Inhibition n=1 48h” value amounted to 0.0%.
As to `O=C(c1ccc(F)cc1)N1CCCN(Cc2noc(-c3ccccc3)n2)CC1` [SN00794182], the “% Inhibition n=1 48h” value came to 33.4%.
As for `CCCn1nnc(NCc2ccc(OCc3ccccc3)cc2)n1` [SN00794214], the “% Inhibition n=1 48h” value is 16.1%.
Still for that read-out and setting: then `CCCNC1=C(C(=O)Nc2ccc(F)cc2)S(=O)(=O)c2ccccc21` [SN00794224], with 46.5%; and `O=C(c1nc2nc(-c3ccco3)cc(C(F)(F)F)n2n1)N1CCCCCC1` [SN00794256], with 19.8%; and `O=C(Nc1ccc(F)cc1)c1nc2nc(-c3cccs3)cc(C(F)(F)F)n2n1` [SN00794266], with 18.7%.
`CNc1nc(C(N)=O)c(NC(=O)c2ccc(OC)cc2)s1` [SN00794269]: the “% Inhibition n=1 48h” value is 25.8%.
On to `CSc1ccccc1NC(=O)C1CCN(S(C)(=O)=O)c2ccccc2O1` (stereo not shown) [SN00794287], for which the “% Inhibition n=1 48h” value was 8.2%.
On to `COc1ccccc1NC(=O)c1cn2c3c(cc(Br)cc3c1=O)CC2` [SN00794326], for which the “% Inhibition n=1 48h” value stood at 11.4%.
Turning to `COC(=O)c1c(NC(=O)Cn2nc(C(F)(F)F)c(Br)c2C)sc2c1CCCC2` [SN00794352], the “% Inhibition n=1 48h” value was found to be 23.2%.
Turning to `Cc1cccc(NC(=O)Cn2c(=O)n(-c3ccc(F)cc3)c(=O)c3c(C)c(C(=O)N(C)C)sc32)c1` [SN00794395], the “% Inhibition n=1 48h” value worked out at 21.9%.
As for `CCCNc1ncnc2c1cnn2-c1ccc(C)cc1` [SN00794411], the “% Inhibition n=1 48h” value was 0.0%.
As to `Cc1ccc(Cl)cc1-n1ncc2c(NCCO)ncnc21` [SN00794417], the “% Inhibition n=1 48h” value is given as 8.1%.
As for `O=C(Nc1ccc(Br)cc1)c1ccc(F)c(S(=O)(=O)NCCc2ccccc2)c1` [SN00794458], the “% Inhibition n=1 48h” value was 3.9%.
With `CCN(CC)S(=O)(=O)c1ccc2[nH]cc(C(=O)NCCCN3CCCC3)c(=O)c2c1` [SN00794535], the “% Inhibition n=1 48h” value worked out at 13.0%.
Turning to `COc1ccc(CCNC(=O)C2c3ccccc3C(=O)N2Cc2ccc(C)cc2)cc1OC` (stereo not shown) [SN00794542], the “% Inhibition n=1 48h” value is recorded as 6.3%.

Staying with this assay, now noted: 48 h, re-assessment.
Turning to `CCCNC(=O)N1CCN(c2nc3ccccc3n3cccc23)CC1` [SN00793136], the “% Inhibition n=2 48h” value turned out to be 0.0%.
In the case of `COc1ccc(Nc2cc(C)nc(N3CCN(C(=O)c4ccccc4)CC3)n2)cc1` [SN00793485], the “% Inhibition n=2 48h” value was determined as 0.0%.
